Source: US8431514B2, “4-cyano-3-benzoylamino-N-phenyl-benzamides for use in pest control” (Syngenta Crop Protection LLC, priority 2009, dated 2013)
Read-outs that look alike come from different tables or passages of the source.

How the values were obtained:
Format in all cases: in vivo
[1] = system: Tetranychus urticae; test: Tetranychus urticae (two-spotted spider mite) bean leaf disc spray test; settings: foliar, 192 h, read-out: control of Tetranychus urticae
Protocol: (§1) These Examples illustrate the insecticidal and acaricidal properties of the compounds of formula (I). The tests were performed as follows:
(§2) Cotton leaf discs were placed on agar in a 24-well microtiter plate and sprayed with test solutions at an application rate of 200 ppm. After drying, the leaf discs were infested with 5 L1 larvae. The samples were checked for mortality, feeding behavior, and growth regulation 3 days after treatment (DAT). The following compound gave at least 80% control of Spodoptera littoralis: A1, A2, A3, A4, A5, A6, A7, A8, A9, A10, A11, A12, A14, A15, A16, A17, A18, A19, A20. Heliothis Virescens (Tobacco Budworm): Eggs (0-24 h old) were placed in 24-well microtiter plate on artificial diet and treated with test solutions at an application rate of 200 ppm (concentration in well 18 ppm) by pipetting. After an incubation period of 4 days, samples were checked for egg mortality, larval mortality, and growth regulation. The following compound gave at least 80% control of Heliothis virescens: A1, A2, A3, A4, A5, A6, A7, A8, A9, A10, A11, A12, A14, A15, A16, A17, A18, A19, A20. Plutella Xylostella (Diamond Back Moth): 24-well microtiter plate (MTP) with artificial diet was treated with test solutions at an application rate of 200 ppm (concentration in well 18 ppm) by pipetting. After drying, the MTP's were infested with L2 larvae (7-12 per well). After an incubation period of 6 days, samples were checked for larval mortality and growth regulation. The following compound gave at least 80% control of Plutella xylostella: A1, A2, A3, A4, A5, A6, A7, A8, A9, A10, A11, A12, A13, A14, A15, A16, A17, A18, A19, A20. Diabrotica Balteata (Corn Root Worm): A 24-well microtiter plate (MTP) with artificial diet was treated with test solutions at an application rate of 200 ppm (concentration in well 18 ppm) by pipetting. After drying, the MTP's were infested with L2 larvae (6-10 per well). After an incubation period of 5 days, samples were checked for larval mortality and growth regulation. The following compound gave at least 80% control of Diabrotica balteata: A1, A2, A3, A4, A5, A6, A7, A8, A9, A10, A11, A12, A13, A14, A16, A17, A18, A19, A20. Thrips Tabaci (Onion Thrips): Sunflower leaf discs were placed on agar in a 24-well microtiter plate and sprayed with test solutions at an application rate of 200 ppm. After drying, the leaf discs were infested with an […] population of mixed ages. After an incubation period of 7 days, samples were checked for mortality. The following compounds gave at least 80% control of Thrips tabaci: A1, A2, A3, A4, A5, A6, A7, A8, A9, A10, A14, A16, A17, A18, A19, A20. Tetranychus Urticae (Two-Spotted Spider Mite): Bean leaf discs on agar in 24-well microtiter plates were sprayed with test solutions at an application rate of 200 ppm. After drying, the leaf discs are infested with mite populations of mixed ages. 8 days later, discs are checked for egg mortality, larval mortality, and adult mortality. The following compounds gave at least 80% control of Tetranychus urticae: A1, A2, A3, A4, A5, A6, A7, A8, A9, A10, A11, A12, A13, A14, A15, A16, A17, A19, A20.

[2] = system: Spodoptera littoralis; test: Spodoptera littoralis (Egyptian cotton leafworm) leaf disc spray test; settings: foliar, 72 h, application rate 200 ppm, cotton leaf discs, 5 L1 larvae, mortality, feeding behavior and growth regulation 3 days after treatment
Protocol: as §1, §2

[3] = system: Thrips tabaci; test: Thrips tabaci (onion thrips) sunflower leaf disc spray test; settings: foliar, 168 h, application rate 200 ppm, sunflower leaf discs, population of mixed ages, mortality after 7 days
Protocol: as §1, §2

[4] = system: Diabrotica balteata; test: Diabrotica balteata (corn root worm) artificial diet test; settings: 120 h, application rate 200 ppm (concentration in well 18 ppm), L2 larvae, larval mortality and growth regulation after 5 days
Protocol: as §1, §2

[5] = system: Plutella xylostella; test: Plutella xylostella (diamond back moth) artificial diet test; settings: 144 h, application rate 200 ppm (concentration in well 18 ppm), L2 larvae, larval mortality and growth regulation after 6 days
Protocol: as §1, §2

[6] = system: Heliothis virescens; test: Heliothis virescens (tobacco budworm) egg test on artificial diet; settings: 96 h, application rate 200 ppm (concentration in well 18 ppm), eggs 0-24 h old on artificial diet, egg mortality, larval mortality and growth regulation after 4 days
Protocol: as §1, §2

[7] = application rate 200 ppm, bean leaf discs, mite populations of mixed ages, egg, larval and adult mortality 8 days later

Measured: pest or weed control at 200 ppm

Cc1cc(C#N)ccc1C(=O)Nc1cc(C(=O)Nc2c(Br)cc(C(F)(C(F)(F)F)C(F)(F)F)cc2Br)ccc1C#N [A3, 4-cyano-3-(4′-cyano-2′-methylbenzoylamino)-N-[2,6-dibromo-4-(1,2,2,2-tetrafluoro-1-trifluoromethylethyl)phenyl]benzamide]
≥ 80%: [1]; [7] | [2] | [3] | [4] | [5] | [6]

CSc1cc(C(F)(C(F)(F)F)C(F)(F)C(F)(F)F)cc(Cl)c1NC(=O)c1ccc(C#N)c(NC(=O)c2ccc(C#N)cc2C)c1 (stereo not drawn) [A10, N-[2-chloro-4-(1,2,2,3,3,3-hexafluoro-1-trifluoromethylpropyl)-6-methylthiophenyl]-4-cyano-3-(4′-cyano-2′-methylbenzoylamino)benzamide]
≥ 80%: [1]; [7] | [2] | [3] | [4] | [5] | [6]

CCc1cc(C(F)(C(F)(F)F)C(F)(F)C(F)(F)F)cc(Br)c1NC(=O)c1ccc(C#N)c(NC(=O)c2ccc(C#N)cc2C)c1 (stereo not drawn) [A5, N-[2-bromo-6-ethyl-4-(1,2,2,3,3,3-hexafluoro-1-trifluoromethylpropyl)-phenyl]-4-cyano-3-(4′-cyano-2′-methylbenzoylamino)benzamide]
≥ 80%: [1]; [7] | [2] | [3] | [4] | [5] | [6]

Cc1cc(C#N)ccc1C(=O)Nc1cc(C(=O)Nc2c(Cl)cc(C(F)(C(F)(F)F)C(F)(F)C(F)(F)F)cc2Br)ccc1C#N (stereo not drawn) [A2, N-[2-bromo-6-chloro-4-(1,2,2,3,3,3-hexafluoro-1-trifluoromethylpropyl)-phenyl]-4-cyano-3-(4′-cyano-2′-methylbenzoylamino)benzamide]
≥ 80%: [1]; [7] | [2] | [3] | [4] | [5] | [6]

Cc1cc(C#N)ccc1C(=O)Nc1cc(C(=O)Nc2c(Cl)cc(C(F)(C(F)(F)F)C(F)(F)F)c(F)c2Cl)ccc1C#N [A14, 4-cyano-3-(4′-cyano-2′-methylbenzoylamino)-N-[2,6-dichloro-3-fluoro-4-(1,2,2,2-tetrafluoro-1-trifluoromethylethyl)phenyl]benzamide]
≥ 80%: [1]; [7] | [2] | [3] | [4] | [5] | [6]

Cc1cc(C#N)ccc1C(=O)Nc1cc(C(=O)Nc2c(C)cc(C3(F)C(F)(F)C(F)(F)C(F)(F)C(F)(F)C3(F)F)cc2C)ccc1C#N [A17, 4-cyano-3-(4′-cyano-2′-methylbenzoylamino)-N-[2,6-dimethyl-4-(undecafluorocyclohexyl)phenyl]benzamide]
≥ 80%: [1] | [2] | [3] | [4] | [5] | [6]

Cc1cc(C#N)ccc1C(=O)Nc1cc(C(=O)Nc2c(Cl)cc(C(F)(C(F)(F)F)C(F)(F)C(F)(F)F)cc2Cl)ccc1C#N (stereo not drawn) [A8, 4-cyano-3-(4′-cyano-2′-methylbenzoylamino)-N-[2,6-dichloro-4-(1,2,2,3,3,3-hexafluoro-1-trifluoromethylpropyl)phenyl]benzamide]
≥ 80%: [1]; [7] | [2] | [3] | [4] | [5] | [6]
